Laboratory results taken from ChEMBL document CHEMBL1201862, “PubChem BioAssay data set” (2004).
Each block holds one molecule with its values, some of them ahead of it. Calls of active or inactive are those of the source.

What was measured:
Assay type in all cases: functional
[1] = target: T1, Orexin/Hypocretin receptor type 1 (Homo sapiens, UniProt O43613); experiment: (§1) Fluorescence-based cell-based high throughput dose response assay for antagonists of the orexin 1 receptor (OX1R; HCRTR1). [Related pubchem assays (depositor defined):AID434989, AID435008, AID463079, AID485270, AID492963, AID492964, AID492965, AID493232, AID504717, AID504718]
T1 sequence (O43613 whole entry): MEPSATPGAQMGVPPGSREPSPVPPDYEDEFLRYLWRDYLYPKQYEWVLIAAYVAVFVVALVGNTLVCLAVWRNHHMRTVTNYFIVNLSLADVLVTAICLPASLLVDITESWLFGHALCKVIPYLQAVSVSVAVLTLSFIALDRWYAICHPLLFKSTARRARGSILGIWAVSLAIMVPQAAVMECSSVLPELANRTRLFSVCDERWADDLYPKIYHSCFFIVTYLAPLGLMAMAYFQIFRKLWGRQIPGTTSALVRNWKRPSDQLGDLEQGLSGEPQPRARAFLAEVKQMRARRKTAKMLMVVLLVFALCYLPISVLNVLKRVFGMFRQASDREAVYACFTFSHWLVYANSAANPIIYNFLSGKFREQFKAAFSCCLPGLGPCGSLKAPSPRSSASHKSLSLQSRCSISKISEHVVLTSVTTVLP

[2] = target: T1, Orexin/Hypocretin receptor type 1; experiment: as §1, with “Homogeneous Time Resolved Fluorescence (HTRF)-based” for “Fluorescence-based”
[3] = (§2) Counterscreen for antagonists of the orexin 1 receptor (OX1R; HCRTR1): Fluorescence-based cell-based high throughput dose response assay to identify antagonists of the parental CHO cell line. [Related pubchem assays (depositor defined):AID434989, AID435008, AID463079, AID485270, AID492963, AID492964, AID492965, AID493232, AID504699, AID504701]
CHO-K1 = experiment: as §2, with “Homogeneous time resolved fluorescence (HTRF)-based” for “Fluorescence-based”, “cell-based” for “cell-based high throughput”, “CHO-K1” for “CHO”; details: Cricetulus griseus;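 further: potency for inhibition of ATP-stimulated IP1 production as antagonists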
Orexin receptor type 2 [4] = target: T2, Orexin receptor type 2 (Homo sapiens, UniProt O43614); experiment: Counterscreen assay for antagonists of the orexin 1 receptor (OX1R; HCRTR1): Homogeneous Time Resolved Fluorescence (HTRF)-based cell-based dose response assay for antagonists of the orexin 2 receptor (OX2R; HCRTR2), run by assay provider.
T2 sequence (O43614 whole entry): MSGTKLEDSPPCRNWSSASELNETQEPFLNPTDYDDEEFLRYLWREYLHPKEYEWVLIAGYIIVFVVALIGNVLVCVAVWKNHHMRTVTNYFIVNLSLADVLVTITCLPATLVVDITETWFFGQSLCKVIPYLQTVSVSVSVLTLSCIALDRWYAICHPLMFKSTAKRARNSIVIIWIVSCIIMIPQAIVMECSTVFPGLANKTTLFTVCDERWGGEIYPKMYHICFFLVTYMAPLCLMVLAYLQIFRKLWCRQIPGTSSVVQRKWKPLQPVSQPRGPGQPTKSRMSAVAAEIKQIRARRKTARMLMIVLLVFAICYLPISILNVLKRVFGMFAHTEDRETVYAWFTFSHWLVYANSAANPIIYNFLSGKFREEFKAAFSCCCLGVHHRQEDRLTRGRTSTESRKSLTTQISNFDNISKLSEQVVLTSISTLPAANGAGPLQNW

Orexin receptor type 2 [5] = target: T2, Orexin receptor type 2; experiment: Counterscreen assay for antagonists of the orexin 1 receptor (OX1R; HCRTR1): Fluorescence-based cell-based dose response assay for antagonists of the orexin 2 receptor (OX2R; HCRTR2), run by assay provider.
[6] = target: T3, Sentrin-specific protease 6 (Homo sapiens, UniProt Q9GZR1); experiment: SAR Analysis of small molecule inhibitors of Sentrin-specific protease 6 (SENP6) using a Luminescent assay. [Related pubchem assays (depositor defined):AID2582, AID2599]
T3 sequence (Q9GZR1 whole entry): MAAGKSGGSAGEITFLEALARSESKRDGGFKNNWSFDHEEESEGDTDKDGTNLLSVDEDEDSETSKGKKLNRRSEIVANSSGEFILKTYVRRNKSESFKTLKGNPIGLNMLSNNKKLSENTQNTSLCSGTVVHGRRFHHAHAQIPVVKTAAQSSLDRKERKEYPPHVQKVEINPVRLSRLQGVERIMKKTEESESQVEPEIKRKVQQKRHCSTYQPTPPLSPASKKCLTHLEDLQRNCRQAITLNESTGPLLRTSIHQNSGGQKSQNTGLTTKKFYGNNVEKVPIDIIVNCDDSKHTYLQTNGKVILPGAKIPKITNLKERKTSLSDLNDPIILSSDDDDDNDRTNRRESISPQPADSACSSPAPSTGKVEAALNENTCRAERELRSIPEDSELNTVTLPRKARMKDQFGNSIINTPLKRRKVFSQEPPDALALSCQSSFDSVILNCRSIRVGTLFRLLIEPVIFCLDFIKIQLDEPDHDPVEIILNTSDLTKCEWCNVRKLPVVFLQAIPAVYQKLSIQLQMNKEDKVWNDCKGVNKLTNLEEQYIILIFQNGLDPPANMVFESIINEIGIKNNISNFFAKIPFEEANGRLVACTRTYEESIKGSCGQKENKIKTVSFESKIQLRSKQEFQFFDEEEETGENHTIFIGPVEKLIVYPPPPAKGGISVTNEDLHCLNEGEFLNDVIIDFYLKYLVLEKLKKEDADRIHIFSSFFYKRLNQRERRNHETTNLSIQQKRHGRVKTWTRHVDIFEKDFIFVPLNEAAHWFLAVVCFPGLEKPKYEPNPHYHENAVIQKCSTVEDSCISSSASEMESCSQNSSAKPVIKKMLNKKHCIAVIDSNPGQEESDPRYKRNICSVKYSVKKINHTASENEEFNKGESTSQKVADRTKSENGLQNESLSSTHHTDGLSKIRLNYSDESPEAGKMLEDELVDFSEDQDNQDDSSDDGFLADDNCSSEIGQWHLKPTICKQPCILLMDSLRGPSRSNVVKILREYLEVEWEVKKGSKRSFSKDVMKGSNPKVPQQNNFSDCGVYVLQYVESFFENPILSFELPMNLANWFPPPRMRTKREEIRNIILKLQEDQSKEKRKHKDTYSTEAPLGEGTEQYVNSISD

[7] = target: T4, Sentrin-specific protease 8 (Homo sapiens, UniProt Q96LD8); experiment: inhibition of human SENP8 cleavage activity – biochemical, luminescence, SAR follow-up (AID 504501)
T4 sequence (Q96LD8 whole entry): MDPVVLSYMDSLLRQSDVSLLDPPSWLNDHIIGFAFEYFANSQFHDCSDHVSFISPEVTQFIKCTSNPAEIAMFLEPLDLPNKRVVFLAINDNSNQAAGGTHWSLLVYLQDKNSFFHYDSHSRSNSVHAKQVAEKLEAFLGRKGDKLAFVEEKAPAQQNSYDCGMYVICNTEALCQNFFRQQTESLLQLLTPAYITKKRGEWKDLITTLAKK

Caspase-3 = target: T5, Caspase-3 (Homo sapiens, UniProt P42574); experiment: SAR Analysis of small molecule inhibitors of Sentrin-specific proteases (SENPs) using a Caspase-3 Selectivity assay. [Related pubchem assays (depositor defined):AID2540, AID2599, AID434973, AID489001]
T5 sequence (P42574 whole entry): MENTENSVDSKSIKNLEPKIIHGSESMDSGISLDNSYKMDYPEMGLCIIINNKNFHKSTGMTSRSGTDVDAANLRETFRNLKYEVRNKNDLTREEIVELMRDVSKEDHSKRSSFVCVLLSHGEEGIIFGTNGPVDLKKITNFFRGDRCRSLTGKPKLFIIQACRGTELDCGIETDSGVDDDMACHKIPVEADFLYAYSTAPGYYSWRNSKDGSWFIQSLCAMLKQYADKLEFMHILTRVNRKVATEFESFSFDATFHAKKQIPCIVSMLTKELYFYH

[8] = target: T6, Sentrin-specific protease 7 (Homo sapiens, UniProt Q9BQF6); experiment: inhibition of human SENP7 cleavage activity – biochemical, luminescence, SAR follow-up (AID 504497)
T6 sequence (Q9BQF6 whole entry): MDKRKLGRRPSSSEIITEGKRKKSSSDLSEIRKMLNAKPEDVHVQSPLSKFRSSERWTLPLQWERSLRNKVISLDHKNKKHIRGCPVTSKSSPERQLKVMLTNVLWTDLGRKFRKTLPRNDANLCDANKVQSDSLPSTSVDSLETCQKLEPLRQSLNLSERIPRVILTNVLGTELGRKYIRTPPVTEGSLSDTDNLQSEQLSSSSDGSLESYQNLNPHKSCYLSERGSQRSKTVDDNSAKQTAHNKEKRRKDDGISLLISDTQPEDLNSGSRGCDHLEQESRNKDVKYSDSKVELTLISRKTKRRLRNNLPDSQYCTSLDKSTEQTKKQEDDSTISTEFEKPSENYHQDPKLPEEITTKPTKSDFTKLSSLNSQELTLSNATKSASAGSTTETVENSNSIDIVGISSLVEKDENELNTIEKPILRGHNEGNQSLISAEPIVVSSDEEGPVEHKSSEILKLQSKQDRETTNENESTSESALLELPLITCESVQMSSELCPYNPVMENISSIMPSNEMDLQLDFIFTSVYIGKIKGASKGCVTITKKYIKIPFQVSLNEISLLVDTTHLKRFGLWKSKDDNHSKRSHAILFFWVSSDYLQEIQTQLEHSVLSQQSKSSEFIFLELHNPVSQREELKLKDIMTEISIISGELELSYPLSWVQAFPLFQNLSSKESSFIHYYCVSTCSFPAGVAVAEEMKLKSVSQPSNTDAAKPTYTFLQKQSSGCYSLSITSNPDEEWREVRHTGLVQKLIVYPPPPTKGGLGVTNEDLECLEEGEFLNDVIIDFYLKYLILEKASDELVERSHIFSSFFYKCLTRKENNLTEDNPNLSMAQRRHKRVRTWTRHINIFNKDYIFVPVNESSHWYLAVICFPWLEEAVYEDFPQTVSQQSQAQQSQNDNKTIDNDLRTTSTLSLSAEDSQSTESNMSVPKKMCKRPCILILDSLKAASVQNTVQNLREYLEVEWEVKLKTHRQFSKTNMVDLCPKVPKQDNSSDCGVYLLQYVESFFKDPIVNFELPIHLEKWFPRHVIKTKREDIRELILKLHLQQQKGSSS

[9] = target: Tyrosine-protein kinase Blk (Homo sapiens, UniProt P51451);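 further: obtained as one member of a kinome-wide kinase assay panel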
Tyrosine-protein kinase Blk, sequence (P51451 whole entry): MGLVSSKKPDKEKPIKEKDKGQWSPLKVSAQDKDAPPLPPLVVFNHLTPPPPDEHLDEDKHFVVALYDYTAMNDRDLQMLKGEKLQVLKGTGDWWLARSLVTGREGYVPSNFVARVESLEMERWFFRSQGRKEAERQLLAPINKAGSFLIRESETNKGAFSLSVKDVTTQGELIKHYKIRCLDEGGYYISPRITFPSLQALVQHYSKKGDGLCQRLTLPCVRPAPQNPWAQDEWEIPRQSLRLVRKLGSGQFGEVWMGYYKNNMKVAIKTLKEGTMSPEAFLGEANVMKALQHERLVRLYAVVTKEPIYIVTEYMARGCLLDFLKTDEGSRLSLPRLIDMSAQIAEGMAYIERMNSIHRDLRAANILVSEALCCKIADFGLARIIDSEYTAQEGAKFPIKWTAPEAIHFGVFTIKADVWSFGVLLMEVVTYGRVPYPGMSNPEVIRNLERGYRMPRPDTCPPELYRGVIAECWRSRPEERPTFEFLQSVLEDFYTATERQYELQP

[10] = target: Vascular endothelial growth factor receptor 2 (Homo sapiens, UniProt P35968)
[11] = target: Receptor-type tyrosine-protein kinase FLT3 (Homo sapiens, UniProt P36888);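 further: FLT3 was tested as one member of a kinome-wide kinase panel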
[12] = target: Vascular endothelial growth factor receptor 3 (Homo sapiens, UniProt P35916);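 further: value from a kinome-wide profiling panel, with FLT4 as the panel member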
[13] = target: Mast/stem cell growth factor receptor Kit (Homo sapiens, UniProt P10721);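 further: KIT entry within a kinase panel assay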
Mast/stem cell growth factor receptor Kit, sequence (P10721 whole entry): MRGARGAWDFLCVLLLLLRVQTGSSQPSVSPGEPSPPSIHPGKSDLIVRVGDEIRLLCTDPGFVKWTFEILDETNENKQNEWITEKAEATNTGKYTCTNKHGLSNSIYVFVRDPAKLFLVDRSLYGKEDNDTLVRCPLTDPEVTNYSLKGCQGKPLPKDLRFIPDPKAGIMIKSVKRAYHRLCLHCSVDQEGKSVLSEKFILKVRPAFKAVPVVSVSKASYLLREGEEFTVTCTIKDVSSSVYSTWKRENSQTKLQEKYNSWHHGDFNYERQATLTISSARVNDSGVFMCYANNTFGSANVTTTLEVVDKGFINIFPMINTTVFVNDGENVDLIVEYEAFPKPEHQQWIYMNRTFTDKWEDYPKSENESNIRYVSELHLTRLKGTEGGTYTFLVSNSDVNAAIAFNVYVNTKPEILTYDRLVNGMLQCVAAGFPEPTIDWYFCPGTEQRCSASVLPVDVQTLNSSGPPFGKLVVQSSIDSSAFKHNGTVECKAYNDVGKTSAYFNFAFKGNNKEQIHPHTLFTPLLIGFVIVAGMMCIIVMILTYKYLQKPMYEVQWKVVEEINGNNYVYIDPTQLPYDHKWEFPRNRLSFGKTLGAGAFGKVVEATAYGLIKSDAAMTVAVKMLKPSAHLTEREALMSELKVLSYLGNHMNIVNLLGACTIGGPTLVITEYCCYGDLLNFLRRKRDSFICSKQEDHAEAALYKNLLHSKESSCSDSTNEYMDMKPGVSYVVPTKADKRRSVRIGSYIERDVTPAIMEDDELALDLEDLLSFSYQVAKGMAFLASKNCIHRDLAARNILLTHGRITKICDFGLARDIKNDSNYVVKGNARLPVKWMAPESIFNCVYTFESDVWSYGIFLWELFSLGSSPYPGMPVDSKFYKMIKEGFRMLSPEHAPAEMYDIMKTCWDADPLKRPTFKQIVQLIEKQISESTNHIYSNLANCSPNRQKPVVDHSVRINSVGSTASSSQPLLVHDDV

[14] = target: Tyrosine-protein kinase Lyn (Homo sapiens, UniProt P07948);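 further: lyn as one member of a kinase panel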
Tyrosine-protein kinase Lyn, sequence (P07948 whole entry): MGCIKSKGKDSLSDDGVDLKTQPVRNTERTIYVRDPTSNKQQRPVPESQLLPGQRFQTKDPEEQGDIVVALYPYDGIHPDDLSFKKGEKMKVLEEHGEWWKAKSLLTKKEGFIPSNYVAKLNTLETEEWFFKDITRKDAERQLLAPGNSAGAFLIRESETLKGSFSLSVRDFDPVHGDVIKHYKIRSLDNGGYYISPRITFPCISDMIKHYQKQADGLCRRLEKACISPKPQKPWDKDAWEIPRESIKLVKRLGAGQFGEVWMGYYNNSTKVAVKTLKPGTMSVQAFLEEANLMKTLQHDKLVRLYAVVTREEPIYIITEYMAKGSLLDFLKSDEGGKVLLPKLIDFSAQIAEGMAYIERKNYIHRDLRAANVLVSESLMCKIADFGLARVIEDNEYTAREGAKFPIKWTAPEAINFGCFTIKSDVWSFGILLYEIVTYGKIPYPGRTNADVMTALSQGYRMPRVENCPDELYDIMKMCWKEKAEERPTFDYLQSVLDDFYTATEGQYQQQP

[15] = target: Tyrosine-protein kinase Lck (Homo sapiens, UniProt P06239);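 further: lck was assayed as one member of a kinase panel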
Tyrosine-protein kinase Lck, sequence (P06239 whole entry): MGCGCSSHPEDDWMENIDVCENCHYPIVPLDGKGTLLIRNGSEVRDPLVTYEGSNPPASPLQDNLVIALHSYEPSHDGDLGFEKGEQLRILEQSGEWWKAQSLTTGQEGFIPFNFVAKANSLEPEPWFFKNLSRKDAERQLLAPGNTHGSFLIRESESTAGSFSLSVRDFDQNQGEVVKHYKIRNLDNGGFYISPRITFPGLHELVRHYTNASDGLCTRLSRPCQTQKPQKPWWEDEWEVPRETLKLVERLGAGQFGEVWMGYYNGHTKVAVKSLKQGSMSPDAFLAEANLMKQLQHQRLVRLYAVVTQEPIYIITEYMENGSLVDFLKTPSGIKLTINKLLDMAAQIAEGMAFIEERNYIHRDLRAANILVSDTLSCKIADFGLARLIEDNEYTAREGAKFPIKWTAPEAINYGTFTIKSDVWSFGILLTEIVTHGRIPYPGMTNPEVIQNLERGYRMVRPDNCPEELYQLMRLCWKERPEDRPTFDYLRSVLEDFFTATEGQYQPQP

[16] = target: Tyrosine-protein kinase ABL1 (Homo sapiens, UniProt P00519)
[17] = target: Proto-oncogene tyrosine-protein kinase Src (Homo sapiens, UniProt P12931);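 further: SRC entry within a kinome-wide kinase profiling panel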
[18] = target: Vascular endothelial growth factor receptor 1 (Homo sapiens, UniProt P17948);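 further: measured within a kinome-wide profiling panel, FLT1 as the panel member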
Vascular endothelial growth factor receptor 1, sequence (P17948 whole entry): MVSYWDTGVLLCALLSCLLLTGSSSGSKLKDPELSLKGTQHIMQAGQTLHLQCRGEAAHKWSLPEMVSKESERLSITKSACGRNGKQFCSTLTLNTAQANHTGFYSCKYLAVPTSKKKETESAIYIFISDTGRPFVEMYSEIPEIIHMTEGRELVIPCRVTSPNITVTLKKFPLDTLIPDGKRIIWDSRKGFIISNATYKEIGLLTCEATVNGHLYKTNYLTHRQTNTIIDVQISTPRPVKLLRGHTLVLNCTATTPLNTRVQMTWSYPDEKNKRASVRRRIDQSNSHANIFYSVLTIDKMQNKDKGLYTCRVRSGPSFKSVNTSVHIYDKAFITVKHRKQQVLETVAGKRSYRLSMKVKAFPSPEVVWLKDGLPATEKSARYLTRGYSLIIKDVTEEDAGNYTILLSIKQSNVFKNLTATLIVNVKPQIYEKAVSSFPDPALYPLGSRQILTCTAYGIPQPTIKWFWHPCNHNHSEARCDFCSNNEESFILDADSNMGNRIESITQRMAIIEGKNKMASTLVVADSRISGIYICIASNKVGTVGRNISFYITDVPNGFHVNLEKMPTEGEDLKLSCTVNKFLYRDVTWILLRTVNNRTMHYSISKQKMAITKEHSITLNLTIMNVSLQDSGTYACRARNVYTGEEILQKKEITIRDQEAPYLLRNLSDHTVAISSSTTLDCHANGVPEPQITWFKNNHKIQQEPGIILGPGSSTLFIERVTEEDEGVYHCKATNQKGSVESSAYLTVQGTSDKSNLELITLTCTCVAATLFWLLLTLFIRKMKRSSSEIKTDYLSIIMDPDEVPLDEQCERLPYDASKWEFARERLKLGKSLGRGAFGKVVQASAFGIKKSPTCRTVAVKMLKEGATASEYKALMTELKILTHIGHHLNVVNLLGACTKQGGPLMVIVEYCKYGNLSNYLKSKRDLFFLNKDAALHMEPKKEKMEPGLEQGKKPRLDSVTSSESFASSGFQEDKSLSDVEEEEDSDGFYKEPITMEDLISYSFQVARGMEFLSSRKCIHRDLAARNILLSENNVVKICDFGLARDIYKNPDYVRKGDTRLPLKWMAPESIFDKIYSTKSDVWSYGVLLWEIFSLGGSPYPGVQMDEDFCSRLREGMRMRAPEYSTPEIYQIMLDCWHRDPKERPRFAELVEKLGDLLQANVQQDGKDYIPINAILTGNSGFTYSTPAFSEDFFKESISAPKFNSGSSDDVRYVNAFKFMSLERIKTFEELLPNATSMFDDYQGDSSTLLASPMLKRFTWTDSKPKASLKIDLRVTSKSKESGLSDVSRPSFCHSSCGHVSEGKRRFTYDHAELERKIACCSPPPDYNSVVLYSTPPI

[19] = target: Tyrosine-protein kinase Fyn (Homo sapiens, UniProt P06241)
[20] = target: Macrophage colony-stimulating factor 1 receptor (Homo sapiens, UniProt P07333);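 further: value comes from the Navigating the Kinome screening panel, CSF1R member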
Macrophage colony-stimulating factor 1 receptor, sequence (P07333 whole entry): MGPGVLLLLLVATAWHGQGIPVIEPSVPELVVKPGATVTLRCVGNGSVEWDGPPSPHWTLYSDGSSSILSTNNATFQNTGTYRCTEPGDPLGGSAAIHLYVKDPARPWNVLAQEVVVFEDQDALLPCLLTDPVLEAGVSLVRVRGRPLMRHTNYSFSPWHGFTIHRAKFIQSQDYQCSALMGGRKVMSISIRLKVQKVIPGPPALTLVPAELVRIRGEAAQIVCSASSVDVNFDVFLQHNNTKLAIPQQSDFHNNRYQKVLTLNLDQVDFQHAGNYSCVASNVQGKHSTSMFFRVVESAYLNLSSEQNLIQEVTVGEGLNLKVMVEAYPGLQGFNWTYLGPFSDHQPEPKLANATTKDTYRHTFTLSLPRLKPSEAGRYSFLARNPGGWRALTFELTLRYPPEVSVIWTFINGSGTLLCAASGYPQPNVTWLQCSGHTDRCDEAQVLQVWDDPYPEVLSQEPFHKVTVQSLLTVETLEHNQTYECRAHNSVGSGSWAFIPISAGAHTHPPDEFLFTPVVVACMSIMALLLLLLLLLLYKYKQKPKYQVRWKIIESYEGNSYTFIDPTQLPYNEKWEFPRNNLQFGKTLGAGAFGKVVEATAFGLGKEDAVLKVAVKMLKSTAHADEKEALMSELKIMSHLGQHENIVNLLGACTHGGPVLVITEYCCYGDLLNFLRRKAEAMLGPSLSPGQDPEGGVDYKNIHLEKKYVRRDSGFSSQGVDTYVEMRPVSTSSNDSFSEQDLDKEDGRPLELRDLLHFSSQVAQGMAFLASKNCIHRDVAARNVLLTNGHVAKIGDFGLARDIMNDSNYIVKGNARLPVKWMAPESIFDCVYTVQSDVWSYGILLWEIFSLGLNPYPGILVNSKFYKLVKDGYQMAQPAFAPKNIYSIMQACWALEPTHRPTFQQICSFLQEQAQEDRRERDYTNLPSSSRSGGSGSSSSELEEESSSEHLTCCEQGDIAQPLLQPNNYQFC

SMILES: CN(C)c1ccc(NC(=S)c2ccc3ccccc3n2)cc1
- IC50 [1]: 6.04 µM (active)
- IC50 [2]: 2.86 µM (active)
- IC50 [3]: > 49.8 µM (inactive)
- IC50 (CHO-K1): > 66.3 µM (inactive)
- IC50 (Orexin receptor type 2 [4]): > 50 µM (inactive)
- IC50 (Orexin receptor type 2 [5]): > 88.8 µM (inactive)

SMILES: COc1ccc2sc(-c3ccc(N(C)C)cc3)c(C#CCO)c2c1
- IC50 [1]: 10.3 µM (inactive)
- IC50 [2]: 6.09 µM (active)
- IC50 [3]: > 49.7 µM (inactive)
- IC50 (CHO-K1): > 66.2 µM (inactive)
- IC50 (Orexin receptor type 2 [4]): > 50 µM (inactive)
- IC50 (Orexin receptor type 2 [5]): 37.4 µM (inactive)

- IC50 [6]: > 99 µM (inactive)
- IC50 (Caspase-3): > 99 µM (inactive)
- IC50 [8]: > 99 µM (inactive)
SMILES: ON(O)c1ccc(N/N=C/c2c[nH]c3ccccc23)cc1
- IC50 [7]: > 99 µM (inactive)

- Ki [9]: 0.398 µM (active)
- Ki [10]: 0.000631 µM (active)
- Ki [11]: 0.00158 µM (active)
- Ki [12]: 0.00158 µM (active)
- Ki [13]: 0.000794 µM (active)
- Ki [14]: 0.126 µM (active)
- Ki [15]: 0.316 µM (active)
- Ki [16]: 0.2 µM (active)
- Ki [17]: 0.794 µM (active)
- Ki [18]: 0.000316 µM (active)
- Ki [19]: 0.501 µM (active)
- Ki [20]: 0.00251 µM (active)
SMILES: Cn1nc(N)c2c(-c3ccc(NC(=O)Nc4cccc(C(F)(F)F)c4)cc3)ccnc21
